PubChem BioAssay (NCI)
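The compound was tested at five concentrations on cells cultured in 96-well plates, with a 48-hour exposure period. The concentration for full growth arrest is given as TGI.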

Legend:
Assay in all cases: NCI tumour cell line growth inhibition, 48 h
HOP-62 NSCLC = test system: HOP-62 NSCLC
BT-549 breast = test system: BT-549 breast
HCC-2998 colon = test system: HCC-2998 colon
KM12 colon = test system: KM12 colon
A549 NSCLC = test system: A549 NSCLC
ACHN renal = test system: ACHN renal
OVCAR-4 ovarian = test system: OVCAR-4 ovarian
RXF 393 renal = test system: RXF 393 renal
MCF7 breast = test system: MCF7 breast
CAKI-1 renal = test system: CAKI-1 renal
M14 melanoma = test system: M14 melanoma

CC(C)=CCN1c2ccccc2[C@@]2(CC=C(C)C)CCN(C)[C@@H]12
TGI (HOP-62 NSCLC): 55 µM
TGI (BT-549 breast): > 100 µM
TGI (HCC-2998 colon): 29.5 µM
TGI (KM12 colon): > 100 µM
TGI (A549 NSCLC): > 100 µM
TGI (ACHN renal): > 100 µM
TGI (OVCAR-4 ovarian): > 100 µM
TGI (RXF 393 renal): > 100 µM
TGI (MCF7 breast): 34.4 µM
TGI (CAKI-1 renal): > 100 µM

O=C(NNC(=O)c1cc2ccccc2[nH]1)c1cc2ccccc2[nH]1
TGI (HOP-62 NSCLC): > 100 µM
TGI (BT-549 breast): > 100 µM
TGI (KM12 colon): > 100 µM
TGI (A549 NSCLC): > 100 µM
TGI (OVCAR-4 ovarian): > 100 µM
TGI (M14 melanoma): > 100 µM
TGI (RXF 393 renal): > 100 µM
TGI (MCF7 breast): > 100 µM
TGI (CAKI-1 renal): > 100 µM

O=C1OCC2=C1C(c1ccc(Cl)cc1)c1cc3c(cc1O2)OCO3 (stereo not drawn)
TGI (HOP-62 NSCLC): > 35.4 µM
TGI (HCC-2998 colon): > 100 µM
TGI (KM12 colon): > 100 µM
TGI (A549 NSCLC): > 100 µM
TGI (ACHN renal): > 100 µM
TGI (OVCAR-4 ovarian): > 100 µM
TGI (M14 melanoma): > 100 µM
TGI (RXF 393 renal): > 100 µM
TGI (MCF7 breast): > 27.2 µM
TGI (CAKI-1 renal): 10.8 µM

CCCCCCCCCCCCOC(=N)N1CCOCC1
TGI (HOP-62 NSCLC): 33.3 µM
TGI (HCC-2998 colon): 23.8 µM
TGI (KM12 colon): 19.3 µM
TGI (A549 NSCLC): 30.4 µM
TGI (ACHN renal): 27.7 µM
TGI (OVCAR-4 ovarian): 21.2 µM
TGI (M14 melanoma): 14.1 µM
TGI (RXF 393 renal): 25.9 µM
TGI (CAKI-1 renal): 17.3 µM

CCO/C=N\C1=C(C#N)SC2=N/C(=C\c3ccco3)C(=O)N21
TGI (HOP-62 NSCLC): > 100 µM
TGI (HCC-2998 colon): > 100 µM
TGI (KM12 colon): > 100 µM
TGI (A549 NSCLC): > 100 µM
TGI (ACHN renal): > 100 µM
TGI (OVCAR-4 ovarian): > 100 µM
TGI (M14 melanoma): > 100 µM
TGI (RXF 393 renal): > 100 µM
TGI (MCF7 breast): > 100 µM
TGI (CAKI-1 renal): > 100 µM

COC(=O)c1c(O)ccc2c1c1c(n2CCc2ccccc2)C(=O)c2ccccc2C1
TGI (HOP-62 NSCLC): 52.3 µM
TGI (BT-549 breast): 63.1 µM
TGI (KM12 colon): > 100 µM
TGI (A549 NSCLC): > 100 µM
TGI (OVCAR-4 ovarian): 41.4 µM
TGI (M14 melanoma): 55.2 µM
TGI (RXF 393 renal): 31.3 µM
TGI (MCF7 breast): 42.5 µM
TGI (CAKI-1 renal): 45.6 µM

CC1=C(C(N)=O)C(c2ccncc2)C(C#N)C(=O)N1 (stereo not drawn)
TGI (HOP-62 NSCLC): > 100 µM
TGI (HCC-2998 colon): > 100 µM
TGI (KM12 colon): > 100 µM
TGI (ACHN renal): > 100 µM
TGI (OVCAR-4 ovarian): > 100 µM
TGI (M14 melanoma): > 100 µM
TGI (RXF 393 renal): > 100 µM
TGI (MCF7 breast): > 100 µM
TGI (CAKI-1 renal): > 100 µM

C/C(=C/C(=O)N(C)c1ccccc1Cl)O[Si](C(C)C)(C(C)C)C(C)C
TGI (HOP-62 NSCLC): 74.4 µM
TGI (BT-549 breast): 56.6 µM
TGI (KM12 colon): > 100 µM
TGI (A549 NSCLC): > 100 µM
TGI (OVCAR-4 ovarian): > 100 µM
TGI (M14 melanoma): 70.9 µM
TGI (RXF 393 renal): 34.5 µM
TGI (CAKI-1 renal): > 100 µM

CCOc1cc(NC(C)=O)ccc1C(=O)NN1C(=O)/C(=C/c2ccc(Cl)cc2)N=C1c1ccccc1
TGI (HOP-62 NSCLC): > 100 µM
TGI (BT-549 breast): > 100 µM
TGI (KM12 colon): > 100 µM
TGI (A549 NSCLC): > 100 µM
TGI (ACHN renal): > 100 µM
TGI (OVCAR-4 ovarian): > 100 µM
TGI (M14 melanoma): > 100 µM
TGI (RXF 393 renal): > 100 µM
TGI (MCF7 breast): > 100 µM
TGI (CAKI-1 renal): > 100 µM

CCOC(=O)c1nc2ccccc2nc1Oc1ccc(F)cc1
TGI (HOP-62 NSCLC): > 100 µM
TGI (BT-549 breast): > 100 µM
TGI (KM12 colon): > 100 µM
TGI (A549 NSCLC): > 100 µM
TGI (ACHN renal): > 100 µM
TGI (M14 melanoma): > 100 µM
TGI (RXF 393 renal): > 100 µM
TGI (MCF7 breast): > 100 µM

CSc1cnc2ccccc2c1Sc1cn(C)c2ccccc2c1=O
TGI (HOP-62 NSCLC): 57.3 µM
TGI (HCC-2998 colon): > 100 µM
TGI (KM12 colon): > 100 µM
TGI (A549 NSCLC): > 100 µM
TGI (ACHN renal): > 100 µM
TGI (OVCAR-4 ovarian): > 100 µM
TGI (M14 melanoma): > 100 µM
TGI (RXF 393 renal): > 100 µM

O=c1[nH]nc(Nc2ccc(Cl)cc2)c2nnn(-c3ccc([N+](=O)[O-])cc3)c12
TGI (HOP-62 NSCLC): > 100 µM
TGI (BT-549 breast): > 100 µM
TGI (HCC-2998 colon): 64.7 µM
TGI (KM12 colon): > 100 µM
TGI (A549 NSCLC): 29.1 µM
TGI (ACHN renal): > 100 µM
TGI (OVCAR-4 ovarian): > 100 µM
TGI (M14 melanoma): > 100 µM
TGI (MCF7 breast): 47.4 µM
TGI (CAKI-1 renal): > 100 µM

CN1CN(c2ccccc2)C2(CCN(CCCN(C)c3ccc(F)cc3)CC2)C1=O
TGI (HOP-62 NSCLC): 32.1 µM
TGI (BT-549 breast): 31.1 µM
TGI (KM12 colon): 31.3 µM
TGI (A549 NSCLC): 65.9 µM
TGI (ACHN renal): 53.2 µM
TGI (M14 melanoma): 30.7 µM
TGI (RXF 393 renal): 46.2 µM
TGI (MCF7 breast): 29.2 µM
TGI (CAKI-1 renal): 86.4 µM

CC(=O)OCC1OC(NC(=S)Nn2c(-c3ccccc3)nc3ccccc3c2=O)C(OC(C)=O)C(OC(C)=O)C1OC(C)=O (stereo not drawn)
TGI (HOP-62 NSCLC): > 100 µM
TGI (BT-549 breast): > 100 µM
TGI (HCC-2998 colon): > 100 µM
TGI (KM12 colon): > 100 µM
TGI (A549 NSCLC): > 100 µM
TGI (ACHN renal): > 100 µM
TGI (M14 melanoma): > 100 µM
TGI (RXF 393 renal): > 100 µM
TGI (MCF7 breast): > 100 µM
TGI (CAKI-1 renal): > 100 µM

C(#C[C@@]12CCC[C@@H]1NCO2)c1ccc2c(c1)OCO2
TGI (HOP-62 NSCLC): > 100 µM
TGI (HCC-2998 colon): 34.6 µM
TGI (KM12 colon): > 100 µM
TGI (A549 NSCLC): > 100 µM
TGI (ACHN renal): > 100 µM
TGI (OVCAR-4 ovarian): > 100 µM
TGI (M14 melanoma): 73.1 µM
TGI (RXF 393 renal): > 100 µM
TGI (MCF7 breast): > 100 µM
TGI (CAKI-1 renal): > 100 µM

Cc1nnc(NS(=O)(=O)c2ccc(N=Nc3c(O)c(C(=O)O)cc4ccccc34)cc2)s1
TGI (HOP-62 NSCLC): > 100 µM
TGI (HCC-2998 colon): > 100 µM
TGI (KM12 colon): > 100 µM
TGI (A549 NSCLC): > 100 µM
TGI (ACHN renal): > 100 µM
TGI (OVCAR-4 ovarian): > 100 µM
TGI (M14 melanoma): > 100 µM
TGI (RXF 393 renal): > 100 µM
TGI (MCF7 breast): > 100 µM
TGI (CAKI-1 renal): > 100 µM

NC(C(=O)O)C(O)c1cnc[nH]1 (stereo not drawn)
TGI (HOP-62 NSCLC): > 100 µM
TGI (BT-549 breast): > 100 µM
TGI (KM12 colon): > 100 µM
TGI (A549 NSCLC): > 100 µM
TGI (ACHN renal): > 100 µM
TGI (OVCAR-4 ovarian): > 100 µM
TGI (M14 melanoma): > 100 µM
TGI (RXF 393 renal): > 100 µM
TGI (MCF7 breast): > 100 µM
TGI (CAKI-1 renal): > 100 µM

N#CC(NNC(=O)c1ccccc1O)c1ccccc1O (stereo not drawn)
TGI (HOP-62 NSCLC): > 100 µM
TGI (KM12 colon): > 100 µM
TGI (A549 NSCLC): > 100 µM
TGI (ACHN renal): > 100 µM
TGI (OVCAR-4 ovarian): > 100 µM
TGI (M14 melanoma): 29.7 µM
TGI (RXF 393 renal): > 100 µM
TGI (CAKI-1 renal): 28.4 µM

NCCCc1nonc1C(=O)O
TGI (HOP-62 NSCLC): > 100 µM
TGI (HCC-2998 colon): > 100 µM
TGI (KM12 colon): > 100 µM
TGI (A549 NSCLC): > 100 µM
TGI (ACHN renal): > 100 µM
TGI (OVCAR-4 ovarian): > 100 µM
TGI (M14 melanoma): > 100 µM
TGI (RXF 393 renal): > 100 µM
TGI (MCF7 breast): > 100 µM
TGI (CAKI-1 renal): > 100 µM

O=C1C/C(=C\c2ccccc2)C(=O)c2ccccc2N1
TGI (HOP-62 NSCLC): 56.6 µM
TGI (HCC-2998 colon): 37.9 µM
TGI (KM12 colon): 39.5 µM
TGI (A549 NSCLC): 56.9 µM
TGI (ACHN renal): 58.4 µM
TGI (OVCAR-4 ovarian): 49.1 µM
TGI (M14 melanoma): 44.1 µM
TGI (RXF 393 renal): 35.8 µM
TGI (MCF7 breast): > 100 µM
TGI (CAKI-1 renal): 33.1 µM

COC(=O)c1c(C(=O)OC)c2ccccn2c1-c1cc(C)cc2c1C(=O)C=CC2=O
TGI (HOP-62 NSCLC): 21.7 µM
TGI (HCC-2998 colon): 20.1 µM
TGI (A549 NSCLC): 25.7 µM
TGI (ACHN renal): 17.2 µM
TGI (OVCAR-4 ovarian): 18.8 µM
TGI (M14 melanoma): 14.5 µM
TGI (RXF 393 renal): 18.5 µM
TGI (CAKI-1 renal): 12.4 µM

O=C(c1ccccc1)N1N=C(C(F)(F)F)CC1(O)C(F)(F)F (stereo not drawn)
TGI (HOP-62 NSCLC): > 100 µM
TGI (BT-549 breast): > 100 µM
TGI (HCC-2998 colon): > 100 µM
TGI (KM12 colon): > 100 µM
TGI (A549 NSCLC): > 100 µM
TGI (ACHN renal): > 100 µM
TGI (OVCAR-4 ovarian): > 100 µM
TGI (M14 melanoma): > 100 µM
TGI (MCF7 breast): > 100 µM

COc1ccc(N(c2ccc(C#N)cc2)c2ccc(C#N)cc2)cc1
TGI (HOP-62 NSCLC): > 100 µM
TGI (BT-549 breast): > 100 µM
TGI (KM12 colon): > 100 µM
TGI (A549 NSCLC): > 100 µM
TGI (ACHN renal): > 100 µM
TGI (OVCAR-4 ovarian): > 100 µM
TGI (M14 melanoma): > 100 µM
TGI (MCF7 breast): > 100 µM
TGI (CAKI-1 renal): > 100 µM
